{"source": "patent US20250176602A1", "about": "“Composition for Proliferation of Bacteroides uniformis in the Intestinal Tract” (Asahi Group Holdings, Ltd., priority 2019, published 2025)", "key": {"[1]": {"experiment": "Suppression of increase in heart rate during exercise, Aerobike exercise loading test (Example 4)", "assay_type": "in vivo, human", "conditions": "about 1000 mg/day", "experimental": "(§1) As the test subjects, 86 healthy males at the ages of 20 to 49 who have exercise habits of conducting exercise with an intensity of 5 METs or more for 30 minutes or more once or twice a week and who can continue the exercise habits during the test period as well were selected.\n(§2) Among the 86 test subjects, 43 test subjects were selected as an α-cyclodextrin (αCD) intake group, and the remaining 43 test subjects were selected as a placebo group. The test subjects themselves were not informed who belonged to which group.\n(§3) Test Supplements (tablets) having compositions described in Table 4 below were used. One tablet of the test supplements was of about 600 mg.\n(§4) Each test subject of the αCD intake group and the placebo group was asked to take in 4 tablets of the above test supplements once a day at any timing. That is, each test subject of the α-cyclodextrin intake group was asked to take in about 1000 mg of α-cyclodextrin per day.\n(§5) The intake period for the test supplements was set to 8 weeks, and the heart rate during exercise was measured, before the start of the intake, after 4-week intake, and after 8-week intake to evaluate change in heart rate. In addition, a questionnaire on fatigue feeling was conducted before the start of the intake of the test supplements and after 8-week intake, and change in travel time was evaluated. […]"}, "[2]": {"experiment": "Fatigue feeling mitigation test, VAS general fatigue feeling (Example 5)", "assay_type": "in vivo, human", "conditions": "after 8-week intake, about 1000 mg/day; p<0.05", "experimental": "as §1, §2, §3, §4, §5"}}, "data": [{"smiles": "OC[C@H]1O[C@@H]2O[C@H]3[C@H](O)[C@@H](O)[C@@H](O[C@H]4[C@H](O)[C@@H](O)[C@@H](O[C@H]5[C@H](O)[C@@H](O)[C@@H](O[C@H]6[C@H](O)[C@@H](O)[C@@H](O[C@H]7[C@H](O)[C@@H](O)[C@@H](O[C@H]1[C@H](O)[C@H]2O)O[C@@H]7CO)O[C@@H]6CO)O[C@@H]5CO)O[C@@H]4CO)O[C@@H]3CO", "note": "[α-cyclodextrin]", "values": [{"measurement": "average heart rate for 10 minutes immediately before the end of exercise (Δ value vs before intake), compared with placebo group", "setting": "[1]; after 4-week intake, tendency", "value": "lower"}, {"measurement": "average heart rate for 10 minutes immediately before the end of exercise (Δ value vs before intake), compared with placebo group", "setting": "[1]; after 8-week intake, p<0.05", "value": "significantly lower"}, {"measurement": "general fatigue feeling (VAS) immediately after exercise, change vs before intake, compared with placebo group", "setting": "[2]", "value": "significantly decreased"}]}]}
